Measured values published in patent US20210246505A1, “COMPOSITIONS & METHODS FOR MONITORING DNA REPAIR” (MEMORIAL SLOAN KETTERING CANCER CENTER, priority 2018, published 2021).

Columns and labels:
Assay type in all cases: cell-based, human
HEK293T cells = test: DSBR-seq of a Cas9 break at the AAVS1 locus, HEK293T cells
Description: In this Example, transfection of the pX330 plasmid, containing the Cas9 and guide RNA (gRNA) expression cassettes to the AAVS1 safe locus, is used. Genomic DNA (gDNA) is collected 3 days post-transfection. To asses—DNA repair by HR, a donor template containing three substitutions around the protospacer adjacent motif (PAM) which limits cut-recut cycles is transfected also. A 500 bp amplicon surrounding the break is used for rapid measurement of DSBR errors via the widely used T7 endonuclease I assay. A 201 bp amplicon surrounding the cut site, but outside of the HR template is amplified, purified via E-gel electrophoresis system, converted into Illumina sequencing libraries, quantified via qPCR, and then sequenced at 200,000× read depth using paired end 150 bp (PE150) Mi-Seq. Unique, nonsingleton reads (occurring more than once) are aligned to the reference sequence using pairwise alignment (for example using Python). The indels and substitutions are cataloged relative to the break site and microhomology (MH) is determined (for example using an internally developed and validated algorithm, see FIG. 8). The reads are categorized as consequences of NHEJ (≤5 bp deletion) or MMEJ (>5 bp deletion with >2 bp MH). The donor template DNA contains key substitutions—thereby providing a readout of HR. These experiments are also performed in cells that are isogenic knockout controls of key NHEJ, MMEJ and HR components and using pharmacologic controls in which DNA-PKcs, RAD51, and PARP are inhibited […]. By comparing the experimental reads against those obtained from the knockout controls and/or pharmacologic controls, the specific reads dependent on each pathway were discovered. (FIG. 1). Thus, these methods involve empirically-determined deletion profiles, derived from known controls deficient in each pathway, as signatures to clearly separate and quantify DSBR events occurring by HR, NHEJ and MMEJ. The single double strand break allows for direct analysis of pathway choice in a native genomic location with a blunt-ended DSB. Because both cell cycle dependent pathways (MMEJ and […]) are measured in the same experiment, there is an effective built-in control for confounding cell cycle effects on the use of these pathways. The AAVS1 genomic location was chosen due to its characterization as a safe site of integration without any known phenotypic effects. Transfection of the pX330 plasmid, containing the Cas9 and gRNA expression cassettes, is performed by nucleofection or liposome-based techniques. To detect DNA repair by homologous recombination (HR), a donor template is used containing three substitutions, one on the gRNA side of the break and two on the other side of the break, destroying the protospacer adjacent motif (PAM) and thereby limiting cut-recut cycles. A 500 bp amplicon surrounding the break is used for rapid measurement of DSBR errors via the widely used T7 endonuclease I assay. A 201 bp amplicon surrounding the cut site, but outside of the HR template is amplified, purified via E-gel electrophoresis system, converted into Illumina sequencing libraries, quantified via qPCR, and then sequenced at 200,000× read depth. Paired end 150 bp (PE150) reads are obtained, affording a central 100 bp region of high sequence fidelity adjacent to the cut site. The PE150 reads are merged using PEAR and then condensed into a set of unique reads. Unique reads that only occur once are discarded, as they are likely low-quality reads due to sequencing error. These unique, nonsingleton reads are aligned to the reference sequence using pairwise alignment through Python. The indels and substitutions are cataloged relative to the breaksite. […] The profile of deletion sizes and extent of microhomology differs between break sites, likely owing to site dependent availability of microhomology. We utilized the DNA-PKcs inhibitor NU7441 to measure NHEJ inhibition. […]

HAP1 cells = test: DSBR-seq of a Cas9 break at the AAVS1 locus, HAP1 cells
Description: (§1) In this Example, transfection of the pX330 plasmid, containing the Cas9 and guide RNA (gRNA) expression cassettes to the AAVS1 safe locus, is used. Genomic DNA (gDNA) is collected 3 days post-transfection. To asses—DNA repair by HR, a donor template containing three substitutions around the protospacer adjacent motif (PAM) which limits cut-recut cycles is transfected also. A 500 bp amplicon surrounding the break is used for rapid measurement of DSBR errors via the widely used T7 endonuclease I assay. A 201 bp amplicon surrounding the cut site, but outside of the HR template is amplified, purified via E-gel electrophoresis system, converted into Illumina sequencing libraries, quantified via qPCR, and then sequenced at 200,000× read depth using paired end 150 bp (PE150) Mi-Seq. Unique, nonsingleton reads (occurring more than once) are aligned to the reference sequence using pairwise alignment (for example using Python). The indels and substitutions are cataloged relative to the break site and microhomology (MH) is determined (for example using an internally developed and validated algorithm, see FIG. 8). The reads are categorized as consequences of NHEJ (≤5 bp deletion) or MMEJ (>5 bp deletion with >2 bp MH). The donor template DNA contains key substitutions—thereby providing a readout of HR. […] The PE150 reads are merged using PEAR and then condensed into a set of unique reads. […]

[1] = tested on: HCC1937 BRCA1 deficient cell line; test: DSBR-seq of a Cas9 break at the AAVS1 locus, HCC1937 BRCA1 deficient cells; settings: with or without inhibitor
Description: as §1

SMILES: O=c1cc(N2CCOCC2)oc2c(-c3cccc4c3sc3ccccc34)cccc12 [NU7441]
- 12 base pair deletion with 5 bp of microhomology read (HEK293T cells; 293T cells): enhanced
- specific 1 bp deletion read (HEK293T cells; 293T cells): suppressed
- HR usage (HEK293T cells; FIG. 1I): increases
- MMEJ usage (HEK293T cells; FIG. 1I): increases
- NHEJ usage (HEK293T cells; FIG. 1I): suppresses
- decrease of the amplitude of the deletion peak (HEK293T cells; HEK293T cells, DSB at position 120 of amplicon): more than 90%
- frequency of HR (donor substitution) peaks (HEK293T cells; HEK293T cells, donor template): increased in frequency
- width of the deletion peak (HEK293T cells; HEK293T cells, reflects use of MMEJ): increases
- 12 base pair deletion with 5 bp of microhomology read (HAP1 cells; HAP1 cells): enhanced
- HR observed [1]: no HR is observed

SMILES: CC(=O)c1c(C)c2cnc(Nc3ccc(N4CCNCC4)cn3)nc2n(C2CCCC2)c1=O [palbociclib]
- increase of the frequency of introduced errors overall (HAP1 cells; G1 arrest by the drug): ~4 fold
